Melting point data for 60 compounds are collected here from a melting point compilation (Tetko et al.; mined from patent text by program, amines drawn as free bases though some values may be those of a salt).

What is called melting point is the temperature of the solid-liquid transition. As for `OC1CSC(Oc2ccc(-c3cncnc3)nc2)C(O)C1O` (stereo not given), the melting point is 188 °C. As for `CN1C(=O)CC[C@]2(C)c3ccc(-c4ccc5ncccc5c4)cc3CC[C@@H]12`, the melting point was in the range of 185 to 190 °C. As for `COc1ccc(CCNc2nc(O)c(NC(=O)c3ccco3)c(O)n2)cc1`, the figure is above 250 °C. As for `O=C(CCCCNC(=O)C(=O)c1cn2c3c(cccc13)CCC2)NOCc1ccccc1`, the figure is 62 to 64 °C; as for `COC(=O)NC1CC(=O)N(c2cc(Cl)cc(Cl)c2)C1=O` (stereo not given), 136 to 138 °C; as for `C[C@H](Cn1ncnn1)n1cnc2cc3c(=O)n([C@H](C)Cn4ncnn4)cnc3cc2c1=O`, 255 to 256 °C. In the case of `O=C(NS(=O)(=O)Cl)Oc1c(-c2ccccc2)cccc1-c1ccccc1`, the melting point fell in the range of 159 to 162 °C. In the case of `COCCCNCc1noc([C@H](CCCC2CCCCC2)CC(=O)NO)n1`, the melting point turned out to be 60 °C. Turning to `N#CCNC(=O)c1ccnc(F)c1`, the melting point lay within 124 to 125 °C.

In the case of `CCOC(=O)C(C#N)=Cc1ccc(OCCc2nc(-c3ccccc3Cl)oc2C)cc1`, the melting point lay within 120 to 121 °C. In turn, `O=c1c(-c2cc(=O)c3c(O)cccc3o2)cn(-c2ccccc2)c2ccccc12` showed a melting point above 300 °C. Compound `COc1cc(C(C)C)c2c(c1)S(=O)(=O)NC2=O` yielded a melting point of 188 °C. As for `CC[C@H](C)[C@H](NC(=O)[C@H](C)N(C(C)=O)C1CCCCC1)C(=O)N[C@@H](Cc1ccc2ccccc2c1)[C@@H](O)[C@@H](O)CC(C)C`, the melting point lay in the range of 192 to 194 °C. In turn, `CCOC(=O)CC(=O)c1cc(C(CC(C)C)NC(=O)Cc2ccc(NC(=O)Nc3ccccc3Cl)cc2)no1` (stereo not given) came in with a melting point of 150 to 152 °C. For `Cn1cc(-c2ccc3nnc(C(F)(F)c4ccc5nc(NC(=O)C6CC6)cn5n4)n3c2)cn1`, the melting point was 275 °C. Compound `CC(C)(C)c1ccc(OP2N(C(C)(C)C)P(Oc3ccc(C(C)(C)C)cc3C(C)(C)C)N2C(C)(C)C)c(C(C)(C)C)c1` (stereo not given) yielded a melting point of 205 to 210 °C.

For `O=NSC1(C2OCCO2)CCCCC1`, the melting point was in the range of 37 to 39 °C. Compound `O=c1[nH]c2ccc([N+](=O)[O-])cc2s1` yielded a melting point of 252 °C. `CC(C)(C)c1ccc2[nH]c(C(=O)c3ccc(Cl)cc3)c(CC(=O)O)c2c1` yielded a melting point of 171 °C.

`CCOC(=O)CC[C@H](NC(=O)c1ccc(CCc2cnc3nc(NC(C)=O)nc(O)c3c2)cc1)C(=O)OCC` returned a melting point above 200 °C. `COc1ccc(CCN2C=CC=C3C2=Nc2cc(OC)ccc2S(=O)(=O)N3C)cc1` displayed a melting point of 65 to 68 °C. For the compound `CC(=O)c1sc(N2CCN(Cc3ccc(C(F)(F)F)cc3)C2=O)nc1C`, the melting point was in the range of 141 to 142 °C. Turning to `O=C(O)c1nn(-c2ccc(Cl)cc2Cl)c2c1CCc1sc(Br)cc1-2`, the melting point was 235 to 237 °C. Next, `COCCOc1ccc(CCCNS(C)(=O)=O)c(Oc2ncc(C(F)(F)F)cc2Cl)c1`: 89 to 90 °C; `CCCc1nc2c(N)nc3ccccc3c2n1CC1(O)CCOC1` (stereo not given): 201 to 203 °C; `c1ccc(-n2c3ccccc3c3ccccc32)cc1`: 96 to 97 °C. Regarding `CN1C(=O)CN=C(c2cccc(Cl)c2)c2cc(C(O)(c3ccc(Cl)cc3)c3cncn3C)ccc21` (stereo not given), the melting point was determined as 226 °C.

`BrCCCCOc1ccc(OCCCCBr)cc1` returned a melting point of 89 to 91 °C. Next, `CC(=O)SC(C(C)=O)c1ccccc1` (stereo not given): 31 to 32 °C; `N#CN1CCC(=C2c3ccccc3CCc3ccncc32)CC1`: 212 to 214 °C. Consider `Nc1ccc2[nH]c(=O)cc(CCN3CCC(c4c[nH]c5ccccc45)CC3)c2c1`, for which the melting point lay in the range of 214 to 216 °C. The compound `Cc1ccc(-c2ccc(Cl)cc2)cc1-c1c(O)cnn(C)c1=O` showed a melting point above 250 °C. As for `Cc1nc(NC(=O)c2ccc(C#N)cc2)sc1C(=O)NCc1ccccc1`, the figure is 256 to 258 °C; as for `CC(C)(C)c1ccc(C(=O)Nc2cn3nc(NCc4cccnc4)ccc3n2)cc1`, 232 to 233 °C; as for `CCOC(=O)c1c2n(c3c(Cl)c(F)c(F)cc3c1=O)C(C)S2` (stereo not given), 191 to 194 °C.

For `COC(=O)c1ccc([N+](=O)[O-])cc1NC(=O)c1ccc(C(C)(C)C)cc1`, the melting point is 146 to 148 °C. In turn, `COc1ccc2c(c1)c1c(n2C)CC(C(N)=O)C1` (stereo not given) had a melting point of 178 to 180 °C. On to `COc1cc(C(C)=O)ccc1OCCCN1C2CCC1CC(c1n[nH]c3cc(F)ccc13)C2` (stereo not given), for which the melting point lay within 157 to 158 °C. `COc1ccc(CN(C)CCCc2ccc(NC(=O)c3cccc4c(=O)c5ccccc5[nH]c34)cc2)cc1OC` displayed a melting point of 112 °C. Consider `CCn1nc(-c2nc(C#N)c(N)nc2-c2ccccc2)ccc1=O`, for which the melting point is above 250 °C. As to `Oc1nc2ccc3ncsc3c2nc1O`, the melting point is above 360 °C.

`NS(=O)(=O)c1ccccc1S` registered a melting point of 113 to 140 °C. With `O=C(Nc1ccc(N2CCN(Cc3ccccc3)CC2)cc1)c1ccccc1-c1ccc(C(F)(F)F)cc1`, the melting point amounted to 180 °C.

`c1ccc2c(N3CCNCC3)n[nH]c2c1` gave a melting point of 139 to 150 °C.

As for `CCCc1c(OCc2ccc(CSc3nnn[nH]3)cc2)ccc(C(C)=O)c1O`, the melting point lay in the range of 160 to 161 °C. In turn, `COc1cc2c(cc1Nc1ncc(Cl)c(N[C@@H]3CCCC[C@H]3NS(C)(=O)=O)n1)NC(=O)CN(CC1CC1)C2` came in with a melting point of 97 °C. Compound `Cc1ncc(Cn2c(CC3CCN(CCc4c(C)nc5sccn5c4=O)CC3)nc3ccccc32)o1` yielded a melting point of 174 °C. Next, `Cc1cccc(C)c1C(c1cccc2ccccc12)C(C#N)C(=O)OC(C)(C)C` (stereo not given): 124 to 128 °C; `Cc1ccc(-c2ccccc2C2=NC(C)(C)CO2)cc1`: 56 to 59 °C. With `CC(=O)NC[C@H]1CN(c2ccc(C3CCN(C(=O)COCc4ccccc4)CC3)c(F)c2)C(=O)O1`, the melting point lay in the range of 147 to 149 °C. `CCc1c(NC(=O)c2cc(S(C)(=O)=O)ccc2OCC(C)C)c(C(N)=O)nn1Cc1nccn1C` returned a melting point of 201 to 206 °C.

For the compound `Cc1cc(NC(=O)NN(c2ccccc2)c2cccc(CN)c2)ccc1N1CCCCC1=O`, the melting point lay in the range of 172 to 173 °C. On to `Cc1nc(-c2ccc(Cl)cc2)sc1C(=O)N[C@H](C)[C@](O)(Cn1cncn1)c1ccc(F)cc1F`, for which the melting point is 159 to 160 °C.

`CC(C)(C)OC(=O)N1CCN(C(=O)N2CCC(c3[nH]nc4c3C(=O)c3c(NC(=O)NN5CCOCC5)cccc3-4)CC2)CC1` showed a melting point of 231 to 232 °C. The compound `CC1(C)c2cc(C#N)ccc2OC1O` (stereo not given) came in with a melting point of 103 to 122 °C.

The compound `CNC1=NS(=O)N=C1NCCCN(Cc1ccccc1)c1ccccn1` (stereo not given) showed a melting point of 122 to 123 °C. `O=C(NCCc1cccs1)c1cc(Cl)ccc1Cl` displayed a melting point of 99 to 100 °C.

On to `CC(C)Oc1ccc(CCCOc2cc(CCC(=O)O)n(-c3ccccc3)n2)c(Oc2ncc(C(F)(F)F)cc2Cl)c1`, for which the melting point was 86 to 88 °C. In turn, `CCCCc1ncc(/C=C2\C(=O)NC(=O)N2Cc2ccccc2)n1Cc1ccc(C(=O)O)cc1` registered a melting point of 297 to 298 °C. Compound `CN1C2CCC1CC(O)(c1ccc(Cl)c(Cl)c1)C2` (stereo not given) showed a melting point of 153 to 154 °C.
